Patent publication US11760766B2, “Ionic liquids containing quaternary ammonium and phosphonium cations, and their use as environmentally friendly lubricant additives” (UT-Battelle, LLC, priority 2020, dated 2023)
Like-named read-outs stand apart in the source and are kept apart here.

Columns and labels:
[1] = test system: Ceriodaphnia dubia; conditions: in vivo
[2] = Solubility of ILs in base oils, by centrifuging the oil-additive blends; conditions: centrifuged 13,000 rpm 5 min

| Compound | Survival rate of Daphnia [1] | Total reproductive output (number of neonates) in surviving Daphnia [1] | other results |
| --- | --- | --- | --- |
| CCCCCCN(CCCCCC)CCCCCC.CCCCOP(=O)(O)OCCCC [[N666H][DBP]] | 10% | – | – |
| CCCCCCCCN(CCCCCCCC)CCCCCCCC.CCCCOP(=O)(O)OCCCC [[N888H][DBP]] | 0% | 0 | – |
| CCCCOP(=O)([O-])OCCCC.CCCC[N+](C)(CCCC)CCCC [[N4441] [DBP]] | > 70% | – | – |
| CCCCOP(=O)(O)OCCCC.CN1CCOCC1 [[NMM] [DBP]] | 70-90% | – | – |
| CCCCOP(=O)(O)OCCCC.CN1CCOCC1 [[NMM][DBP]] | > 70% | – | – |
| CCCCOP(=O)(O)OCCCC.CN1CCCCC1 [[NMPPR] [DBP]] | 70-90% | – | – |
| CCCCOP(=O)(O)OCCCC.CN1CCCCC1 [[NMPPR][DBP]] | > 70% | – | – |
| CCCC[P+](CC)(CCCC)CCCC [[P4442][DEP], Tributyl(ethyl)phosphonium diethyl phosphate] | – | – | IL's solubility in base oil ([2]; OSP-32): >5% wt. %; IL's solubility in base oil ([2]; PAG (50-HB-170)): >5% wt. %; Number of surviving Daphnia ([1]; Ceriodaphnia dubia): 10; Survival rate of Daphnia ([1]; Ceriodaphnia dubia): > 70%; Mortality / survival of Daphnia, in words [1]: did not cause any mortality |
| Tetraoctylammonium octadecanoate [[N8888][C17H35COO]] | – | 0 | Mortality / survival of Daphnia, in words [1]: No Daphnia survived for three days |
| Tetraoctylphosphonium bis(2-ethylhexyl) phosphate [[P8888][DEHP], reference compound] | – | 0 | Time of exposure after which all Daphnia were killed [1]: one |
| Trioctylammonium di(2-ethylhexyl)phosphate [[N888H][DEHP], reference compound] | – | 0 | – |
| tributyl(methyl)ammonium dibutyl phosphate [[N4441][DBP]] | – | – | Mortality / survival of Daphnia, in words [1]: did not cause any mortality |
